Laboratory results taken from PMC10945555, “Improving Activity of New Arylurea Agents against Multidrug-Resistant and Biofilm-Producing Staphylococcus epidermidis” (ACS Medicinal Chemistry Letters, 2024).
In brackets after ≈: the same amount, converted by molar mass. Where two headings read alike, the source gives them in different places.

Assays:
[1] = tested on: Staphylococcus aureus ATCC BAA-976; experiment: MIC, broth microdilution, MDR/BPSA reference strain; assay type: cell-based; conditions: ATCCBAA976; Staphylococcus aureus ATCC BAA-976; read-out: MIC MDR/BPSA
In short: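 Compounds tested as free bases dissolved in DMSO (1 mg/mL stock); determinations done twice; linezolid as positive control.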

[2] = tested on: clinical MDR Staphylococcus epidermidis isolates; experiment: MIC, broth microdilution, 81 clinical MDR strains; assay type: cell-based; conditions: Staphylococcus epidermidis
In short: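 MICs were determined by twofold broth microdilution in cation-adjusted Mueller-Hinton II broth per EUCAST, over 50–0.1 µg/mL, in duplicate. Compounds were tested as free bases dissolved in DMSO; MIC50 and MIC90 were derived across the 81 clinical MDR S. epidermidis strains.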

## O=S(=O)(NC1CCN(CCC(Oc2ccc(C(F)(F)F)cc2)c2ccccc2)CC1)c1cccc(Cl)c1 (stereo not shown) [Compound 12]
[1]
  MIC: 50 µg/mL (≈ 90.4 µM)
[2]; clinical strain 1 (Table S2), read-out: MIC
  MIC: 0.2 µg/mL (≈ 0.362 µM)
[2]; clinical strain 2 (Table S2), read-out: MIC
  MIC: 1.6 µg/mL (≈ 2.89 µM)
[2]; clinical strain 3 (Table S2), read-out: MIC
  MIC: 0.8 µg/mL (≈ 1.45 µM)
[2]; clinical strain 4 (Table S2), read-out: MIC
  MIC: 0.8 µg/mL (≈ 1.45 µM)
[2]; clinical strain 5 (Table S2), read-out: MIC
  MIC: 1.6 µg/mL (≈ 2.89 µM)
[2]; clinical strain 6 (Table S2), read-out: MIC
  MIC: 3.12 µg/mL (≈ 5.65 µM)
[2]; clinical strain 7 (Table S2), read-out: MIC
  MIC: 6.25 µg/mL (≈ 11.3 µM)
[2]; clinical strain 8 (Table S2), read-out: MIC
  MIC: 1.6 µg/mL (≈ 2.89 µM)
[2]; clinical strain 9 (Table S2), read-out: MIC
  MIC: 3.12 µg/mL (≈ 5.65 µM)
[2]; clinical strain 10 (Table S2), read-out: MIC
  MIC: 6.25 µg/mL (≈ 11.3 µM)
[2]; clinical strain 11 (Table S2), read-out: MIC
  MIC: 6.25 µg/mL (≈ 11.3 µM)
[2]; clinical strain 12 (Table S2), read-out: MIC
  MIC: 6.25 µg/mL (≈ 11.3 µM)
[2]; clinical strain 13 (Table S2), read-out: MIC
  MIC: 6.25 µg/mL (≈ 11.3 µM)
[2]; clinical strain 14 (Table S2), read-out: MIC
  MIC: 50 µg/mL (≈ 90.4 µM)
[2]; clinical strain 15 (Table S2), read-out: MIC
  MIC: 3.12 µg/mL (≈ 5.65 µM)
[2]; clinical strain 16 (Table S2), read-out: MIC
  MIC: 3.12 µg/mL (≈ 5.65 µM)
[2]; clinical strain 17 (Table S2), read-out: MIC
  MIC: 3.12 µg/mL (≈ 5.65 µM)
[2]; clinical strain 18 (Table S2), read-out: MIC
  MIC: 3.12 µg/mL (≈ 5.65 µM)
[2]; clinical strain 19 (Table S2), read-out: MIC
  MIC: 3.12 µg/mL (≈ 5.65 µM)
[2]; clinical strain 20 (Table S2), read-out: MIC
  MIC: 6.25 µg/mL (≈ 11.3 µM)
[2]; clinical strain 21 (Table S2), read-out: MIC
  MIC: 6.25 µg/mL (≈ 11.3 µM)
[2]; clinical strain 22 (Table S2), read-out: MIC
  MIC: 12.5 µg/mL (≈ 22.6 µM)
[2]; clinical strain 23 (Table S2), read-out: MIC
  MIC: 12.5 µg/mL (≈ 22.6 µM)
[2]; clinical strain 24 (Table S2), read-out: MIC
  MIC: 12.5 µg/mL (≈ 22.6 µM)
[2]; clinical strain 25 (Table S2), read-out: MIC
  MIC: 12.5 µg/mL (≈ 22.6 µM)
[2]; clinical strain 26 (Table S2), read-out: MIC
  MIC: 12.5 µg/mL (≈ 22.6 µM)
[2]; clinical strain 27 (Table S2), read-out: MIC
  MIC: 25 µg/mL (≈ 45.2 µM)
[2]; clinical strain 28 (Table S2), read-out: MIC
  MIC: 12.5 µg/mL (≈ 22.6 µM)
[2]; clinical strain 29 (Table S2), read-out: MIC
  MIC: 12.5 µg/mL (≈ 22.6 µM)
[2]; clinical strain 30 (Table S2), read-out: MIC
  MIC: 25 µg/mL (≈ 45.2 µM)
[2]; clinical strain 31 (Table S2), read-out: MIC
  MIC: 50 µg/mL (≈ 90.4 µM)
[2]; clinical strain 32 (Table S2), read-out: MIC
  MIC: 50 µg/mL (≈ 90.4 µM)
[2]; clinical strain 33 (Table S2), read-out: MIC
  MIC: 25 µg/mL (≈ 45.2 µM)
[2]; clinical strain 34 (Table S2), read-out: MIC
  MIC: 50 µg/mL (≈ 90.4 µM)
[2]; clinical strain 35 (Table S2), read-out: MIC
  MIC: 50 µg/mL (≈ 90.4 µM)
[2]; clinical strain 36 (Table S2), read-out: MIC
  MIC: 50 µg/mL (≈ 90.4 µM)
[2]; clinical strain 37 (Table S2), read-out: MIC
  MIC: 50 µg/mL (≈ 90.4 µM)
[2]; clinical strain 38 (Table S2), read-out: MIC
  MIC: 50 µg/mL (≈ 90.4 µM)
[2]; clinical strain 39 (Table S2), read-out: MIC
  MIC: 50 µg/mL (≈ 90.4 µM)
[2]; clinical strain 40 (Table S2), read-out: MIC
  MIC: 50 µg/mL (≈ 90.4 µM)
[2]; clinical strain 41 (Table S2), read-out: MIC
  MIC: 12.5 µg/mL (≈ 22.6 µM)
[2]; clinical strain 42 (Table S2), read-out: MIC
  MIC: 50 µg/mL (≈ 90.4 µM)
[2]; clinical strain 43 (Table S2), read-out: MIC
  MIC: 25 µg/mL (≈ 45.2 µM)
[2]; clinical strain 44 (Table S2), read-out: MIC
  MIC: 50 µg/mL (≈ 90.4 µM)
[2]; clinical strain 45 (Table S2), read-out: MIC
  MIC: 50 µg/mL (≈ 90.4 µM)
[2]; clinical strain 46 (Table S2), read-out: MIC
  MIC: 50 µg/mL (≈ 90.4 µM)
[2]; clinical strain 47 (Table S2), read-out: MIC
  MIC: 50 µg/mL (≈ 90.4 µM)
[2]; clinical strain 48 (Table S2), read-out: MIC
  MIC: 3.12 µg/mL (≈ 5.65 µM)
[2]; clinical strain 49 (Table S2), read-out: MIC
  MIC: 0.1 µg/mL (≈ 0.181 µM)
[2]; clinical strain 50 (Table S2), read-out: MIC
  MIC: 50 µg/mL (≈ 90.4 µM)
[2]; clinical strain 51 (Table S2), read-out: MIC
  MIC: 50 µg/mL (≈ 90.4 µM)
[2]; clinical strain 52 (Table S2), read-out: MIC
  MIC: 3.12 µg/mL (≈ 5.65 µM)
[2]; clinical strain 53 (Table S2), read-out: MIC
  MIC: 6.25 µg/mL (≈ 11.3 µM)
[2]; clinical strain 54 (Table S2), read-out: MIC
  MIC: 50 µg/mL (≈ 90.4 µM)
[2]; clinical strain 55 (Table S2), read-out: MIC
  MIC: 6.25 µg/mL (≈ 11.3 µM)
[2]; clinical strain 56 (Table S2), read-out: MIC
  MIC: 3.12 µg/mL (≈ 5.65 µM)
[2]; clinical strain 57 (Table S2), read-out: MIC
  MIC: 50 µg/mL (≈ 90.4 µM)
[2]; clinical strain 58 (Table S2), read-out: MIC
  MIC: 3.12 µg/mL (≈ 5.65 µM)
[2]; clinical strain 59 (Table S2), read-out: MIC
  MIC: 50 µg/mL (≈ 90.4 µM)
[2]; clinical strain 60 (Table S2), read-out: MIC
  MIC: 3.12 µg/mL (≈ 5.65 µM)
[2]; clinical strain 61 (Table S2), read-out: MIC
  MIC: 50 µg/mL (≈ 90.4 µM)
[2]; clinical strain 62 (Table S2), read-out: MIC
  MIC: 6.25 µg/mL (≈ 11.3 µM)
[2]; clinical strain 63 (Table S2), read-out: MIC
  MIC: 1.6 µg/mL (≈ 2.89 µM)
[2]; clinical strain 64 (Table S2), read-out: MIC
  MIC: 3.12 µg/mL (≈ 5.65 µM)
[2]; clinical strain 65 (Table S2), read-out: MIC
  MIC: 3.12 µg/mL (≈ 5.65 µM)
[2]; clinical strain 66 (Table S2), read-out: MIC
  MIC: 50 µg/mL (≈ 90.4 µM)
[2]; clinical strain 67 (Table S2), read-out: MIC
  MIC: 50 µg/mL (≈ 90.4 µM)
[2]; clinical strain 68 (Table S2), read-out: MIC
  MIC: 50 µg/mL (≈ 90.4 µM)
[2]; clinical strain 69 (Table S2), read-out: MIC
  MIC: 1.6 µg/mL (≈ 2.89 µM)
[2]; clinical strain 70 (Table S2), read-out: MIC
  MIC: 50 µg/mL (≈ 90.4 µM)
[2]; clinical strain 71 (Table S2), read-out: MIC
  MIC: 50 µg/mL (≈ 90.4 µM)
[2]; clinical strain 72 (Table S2), read-out: MIC
  MIC: 3.12 µg/mL (≈ 5.65 µM)
[2]; clinical strain 73 (Table S2), read-out: MIC
  MIC: 0.8 µg/mL (≈ 1.45 µM)
[2]; clinical strain 74 (Table S2), read-out: MIC
  MIC: 50 µg/mL (≈ 90.4 µM)
[2]; clinical strain 75 (Table S2), read-out: MIC
  MIC: 6.25 µg/mL (≈ 11.3 µM)
[2]; clinical strain 76 (Table S2), read-out: MIC
  MIC: 0.8 µg/mL (≈ 1.45 µM)
[2]; clinical strain 77 (Table S2), read-out: MIC
  MIC: 3.12 µg/mL (≈ 5.65 µM)
[2]; clinical strain 78 (Table S2), read-out: MIC
  MIC: 6.25 µg/mL (≈ 11.3 µM)
[2]; clinical strain 79 (Table S2), read-out: MIC
  MIC: 3.12 µg/mL (≈ 5.65 µM)
[2]; clinical strain 80 (Table S2), read-out: MIC
  MIC: 12.5 µg/mL (≈ 22.6 µM)
[2]; clinical strain 81 (Table S2), read-out: MIC
  MIC: 6.25 µg/mL (≈ 11.3 µM)
[2]; mean of MIC values against clinical MDR-SE isolates, read-out: mean MIC
  MIC: 20.4 µg/mL (≈ 36.9 µM)
[2]; 81 clinical strains, concentration inhibiting growth of 50% clinical isolates
  MIC50: 6.25 µg/mL (≈ 11.3 µM)
[2]; 81 clinical strains, concentration inhibiting growth of 90% of clinical isolates
  MIC90: 50 µg/mL (≈ 90.4 µM)
